Data from patent US20170290821A1 (priority 2014, published 2017).
Where a name gives a salt, the structure may show the parent alone. Read-outs that look alike come from different tables or passages of the source.

Tested on: influenza virus A/WSN RG#1-1 strains
Experiment: microbe, parasite or virus in culture
Assay type: cell-based
Conditions: for IC50: unidentified influenza virus, WSN, read-out: IC50 (50% virus replication inhibitory concentration)

| SMILES | IC50 (A549, 48 h) [µM] | IC50 (HEK293, 48 h) [µM] | IC50 (50% virus replication inhibitory concentration) | other results |
| --- | --- | --- | --- | --- |
| N#C/C(=C\c1ccc(O)c(O)c1)C(=O)NCc1ccccc1 [Compound J4, (E)-N-benzyl-2-cyano-3-(3,4-dihydroxyphenyl)acrylamide] | 31.6 |  |  |  |
| O=C(Nc1c[nH]nc1-c1nc2cc(CN3CCOCC3)ccc2[nH]1)NC1CC1 [Compound J7, 1-cyclopropyl-3-(3-(5-(morpholinomethyl)-1H-benzo[d]imidazol-2-yl)-1H-pyrazol-4-yl) urea] | 3.16 |  |  |  |
| N#CCNC(=O)c1ccc(-c2ccnc(Nc3ccc(N4CCOCC4)cc3)n2)cc1 [Compound J8, N-(cyanomethyl)-4-(2-(4-morpholinophenylamino)pyrimidin-4-yl)benzamide] |  | 31.6 |  |  |
| CN1CCN(c2cccc(Nc3nc4c(-c5ccc(S(C)(=O)=O)cc5)cccn4n3)c2)CC1 [Compound J11] |  |  | 3.50 log10, nM |  |
| Fc1cc(-c2cccc3ncc(-c4cnn(C5CCNCC5)c4)nc23)cc(F)c1CN1CCOCC1 [Compound J13, 8-(3,5-difluoro-4-(morpholinomethyl)phenyl)-2-(1-(piperidin-4-yl)-1H-pyrazol-4-yl)qui noxaline] |  |  | 3.17 log10, nM |  |
| CC(C)N(CCC(=O)c1ccc2ccccc2c1)Cc1ccccc1 [Compound J15, 1-propanone, 3-[(1-methylethyl)(phenylmethyl)amino]-1-(2-naphthalenyl)-, hydrochloride (1:1)] |  | 0.316 |  |  |
| O=C(Nc1nc2cccc(-c3ccc(CN4CCS(=O)(=O)CC4)cc3)n2n1)C1CC1 [Compound J19, N-[5-[4-[(1,1-dioxido-4-thiomorpholinyl)methyl]phenyl][1,2,4]triazolo[1,5-a]pyridin-2-yl]cyclopropanccarboxamidc] | 31.6 | 31.6 |  | IC50 (MDCK, 48 h): 31.6 µM |
| COc1cc2ncnc(Nc3ccc(O)cc3)c2cc1OC [Compound J20, 4-[(6,7-dimethoxy-4-quinazolinyl)amino]-phenol] |  | 31.6 |  |  |
| Cl.Cl.Fc1cc(-c2cccc3ncc(-c4cnn(C5CCNCC5)c4)nc23)cc(F)c1CN1CCOCC1 [Compound J21, 4-[[2,6-difluoro-4-[3-(1-piperidin-4-ylpyrazol-4-yl)quinoxalin-5-yl]phenyl]methyl]morpholine; dihydrochloride] |  |  | 3.50 log10, nM |  |
| CN1C/C=C/CCOc2cccc(c2)-c2ccnc(n2)Nc2cccc(c2)C1 [Compound J23, 20-oxa-5,7,14,27-tetraazatetracyclo[19.3.1.12,6.18, 12]heptacosa-1(25),2,4,6(27),8,10,12(26),16,21,23-decane,14-methyl-] | 0.0316 | 0.0316 |  | IC50 (MDCK, 48 h): 0.0316 µM |
| CCC[C@H](NC(=O)/C(C#N)=C/c1cccc(Br)n1)c1ccccc1 [Compound J25, (2E)-3-(6-bromo-2-pyridinyl)-2-cyano-N-[1S-phenylbutyl]-2-propenamide] |  |  | 2.50 log10, nM |  |
